IC50 data for 17 molecules are collected here from ChEMBL document CHEMBL1139958, “Synthesis and biological evaluation of analogues of the anti-tumor alkaloid naamidine A” (Bioorg Med Chem Lett, 2007).

The nature of the first assay: Inhibition EGF-dependent mitogenesis of mouse BaF/ERX cells by [3H]thymidine incorporation assay. In kind it is functional, cell-based.
A word on the IC50: it is the concentration that inhibits the measured activity by half. A low value points to greater potency. The molecule `CN1C(=O)N=C(Nc2nc(-c3ccccc3)c(-c3ccccc3)s2)C1=O` came in with an IC50 of over 75 µM.
Same read-out and setting: for `COc1ccc(-c2nc(NC(=O)NCc3ccccc3)sc2-c2ccc(OC)cc2)cc1` the value was over 75 µM.
For `COc1ccc(-c2nc(NC(=O)[C@H](C)N)sc2-c2ccc(OC)cc2)cc1`, the IC50 is 12 µM.
On the same count and under the same terms, for `CN1C(=O)N=C(Nc2ncc(Cc3ccc(O)cc3)n2C)C1=O` the value was 4 µM; for `COc1ccc(Cc2nc(N)sc2Cc2ccc(O)cc2)cc1`, 18 µM; for `Nc1nc(-c2ccccc2)c(-c2ccccc2)s1`, over 75 µM.
Still for that read-out and setting: for `Nc1nc(-c2ccc(O)cc2)c(-c2ccc(O)cc2)s1` the value was over 75 µM.
Still for that read-out and setting: for `Nc1nc(-c2ccccc2)c(Cc2ccc(O)cc2)s1` the value was 50 µM.
With `COc1ccc(Cc2nc(NC3=NC(=O)N(C)C3=O)sc2Cc2ccc(O)cc2)cc1`, half-maximal inhibition (IC50) was put at 10 µM.
Take `CN1C(=O)N=C(Nc2nc(Cc3ccc(OCc4ccccc4)cc3)c(Cc3ccc(O)cc3)s2)C1=O`: the IC50 was over 75 µM.
As to `CN1C(=O)N=C(Nc2nc(-c3ccccc3)c(Cc3ccc(O)cc3)s2)C1=O`, the IC50 was determined as 25 µM.
Still for that read-out and setting: under `COc1ccc(Cc2nc(NC3=NC(=O)N(C)C3=O)n(C)c2Cc2ccc(O)cc2)cc1` stands 3 µM.
On to `CN1C(=O)N=C(Nc2nc(-c3ccc(Cl)cc3)c(Cc3ccc(O)cc3)s2)C1=O`, for which the IC50 amounted to 15 µM. Against the preceding molecule, the IC50 is about 5-fold higher.
Same read-out and setting: under `COc1ccc(-c2nc(N)sc2-c2ccc(OC)cc2)cc1` stands over 75 µM; under `COc1ccc(-c2nc(NC3=NC(=O)N(C)C3=O)sc2-c2ccc(OC)cc2)cc1`, 50 µM; under `CN1C(=O)N=C(Nc2nc(-c3ccc(O)cc3)c(-c3ccc(O)cc3)s2)C1=O`, 5 µM.
The same measure, in the same setting: for `COc1ccc(Cc2[nH]c(=N)n(C)c2Cc2ccc(O)cc2)cc1` [NAAMINE A] the value was 75 µM.

A further assay is described as follows: Inhibition IL3-dependent mitogenesis of mouse BaF/ERX cells by [3H]thymidine incorporation assay. In kind it is functional, cell-based.
`COc1ccc(-c2nc(NC3=NC(=O)N(C)C3=O)sc2-c2ccc(OC)cc2)cc1` had an IC50 of 10 µM. This lies in the double-digit micromolar range.
On to `COc1ccc(Cc2[nH]c(=N)n(C)c2Cc2ccc(O)cc2)cc1` [NAAMINE A], for which the IC50 came to 75 µM. This IC50 lies about 7.5-fold higher than the previous one.
